In patent US20220362386A1, “LIQUID COMPOSITIONS COMPRISING A LEVODOPA AMINO ACID CONJUGATE AND USES THEREOF” (NeuroDerm, Ltd., priority 2019, published 2022):
Structures can show the parent of a compound that is named as a salt. Where two headings read alike, the source gives them in different places. Non-standard residues stand in square brackets, D forms with d. Residues, ends and D or L forms follow the SMILES beside them. Dopa = N[C@@H](Cc1ccc(O)c(O)c1)C(=O)O

Key:
[1] = physchem; format: physicochemical
Protocol: The volume of the solution in the bottle was adjusted to 5 ml, either by adding solvent, or be removing any residual solution, after which the bottle was tightly closed and left at 25° C. for stability observation. It is noted that throughout Example 4, the concentrations in the tables below were calculated taking into account the amount of solvent added or the solution removed, in which event, the calculations were performed regarding the 5 ml+(amount removed) as the volume of the solution. It is further noted that throughout this document, unless mentioned otherwise, the stability was measured using the manual visual inspection Bosch apparatus MIH DX, at a magnification of ×1.75.
The LD-Tyr free base, prepared according to Example 2, was added to a solvent, as detailed in Table 7 below, and neutralized by addition of NaOH. When maximum solubility was observed, the solution was filtered and then transferred to a bottle that was previously weighed and flushed with nitrogen. The volume of the solution in the bottle was adjusted to 5 ml, after which the bottle was tightly closed and left at 25° C. for stability observation.
When maximum solubility was observed, the solution was filtered and then transferred to a bottle that was previously weighed and flushed with nitrogen. The volume of the solution in the bottle was adjusted to 5 ml, after which the bottle was tightly closed and left at 25° C. for stability observation.
(§1) When maximum solubility was observed, the solution was filtered and then transferred to a bottle that was previously weighed and flushed with nitrogen. The volume of the solution in the bottle was adjusted to 5 ml, after which the bottle was tightly closed and stored at 25° C. for stability observation.
as §1
LD-Lys TFA salt, prepared according to Example 1, and which comprises two equivalents of TFA, was added to a solvent, as detailed in Table 11 below, and neutralized by addition of NaOH. When maximum solubility was observed, the solution was filtered and then transferred to a bottle that was previously weighed and flushed with nitrogen. The volume of the solution in the bottle was adjusted to 5 ml, after which the bottle was tightly closed and stored at 25° C. for stability observation.
As detailed above regarding other solutions, with the LD-Tyr free base when maximum solubility was observed, the solution was filtered and then transferred to a bottle that was previously weighed and flushed with nitrogen. The volume of the solution in the bottle was adjusted to 5 ml, after which the bottle was tightly closed and left at 25° C. for stability observation.
LD-Lys HCl salt, prepared according to Example 3, was added to a solvent, as detailed in Table 13 below, and neutralized by the addition of NaOH. When maximum solubility was observed, the solution was filtered and then transferred to a bottle that was previously weighed and flushed with nitrogen. The volume of the solution in the bottle was adjusted to 5 ml, after which the bottle was tightly closed and left at 25° C. for stability observation.

[2] = Stability observation of the solubility solutions at 25° C. (visual inspection for precipitants); format: physicochemical
Protocol: The volume of the solution in the bottle was adjusted to 5 ml, either by adding solvent, or be removing any residual solution, after which the bottle was tightly closed and left at 25° C. for stability observation. […] It is further noted that throughout this document, unless mentioned otherwise, the stability was measured using the manual visual inspection Bosch apparatus MIH DX, at a magnification of ×1.75.

[3] = Analytical stability of LD-Tyr/CD formulations by HPLC (Tables 42-45c); details: for Analytical stability result (HPLC), t = 1 week / Analytical stability result (HPLC), t = 2 weeks: in mg/mL (unit assumed)
Protocol: (§5) It is noted that the recovery % compared the amount of any given material as measured at t=28 h (or any other presented value) compared to the amount of that material, at measured at t=0.

[4] = 0 weeks
Protocol: as §5

[5] = Human liver S9 stability test; format: in vitro ADME; details: slope of the percentage decrease of remaining compound; substrate 10 μM; S9 protein 0.2 mg/mL; 0-60 minutes
Protocol: The stability of several LDAA compounds, in their TFA salt form, in human liver S9 was tested using commercially available liver S9. The substrate concentration was 10 μM, the S9 protein concentration was 0.2 mg/mL, and the incubation time 0, 5, 15, 30 and 60 minutes.
The results are described in Table 18, wherein the results describe the Ke, i.e., the slope of the percentage decrease of the remaining amount of the compound, measured at each of the above time points, such that the higher the Ke the faster the metabolism.

[6] = Human blood stability test; format: in vitro ADME; details: slope of the percentage decrease of remaining compound; substrate 10 μM; 0-60 minutes
Protocol: The stability of several LDAA compounds in human blood was tested. The substrate concentration was 10 μM and the incubation time 0, 5, 15, 30 and 60 minutes.
The results are described in Table 19, wherein the results describe the Ke, i.e., the slope of the percentage decrease of the remaining amount of the compound, measured at each of the above time points, such that the higher the Ke the faster the metabolism.

[7] = tested on: human plasma; assay: Protein binding, solid phase extraction (SPE) method; format: in vitro ADME; details: 1.0E−05M; SPE sample preparation
Protocol: (§2) A solid phase extraction (SPE) method was used to prepare samples for several compounds in the plasma protein binding assay. The following SPE protocols were followed:
(§3) Sorbent: Waters Oasis MCX 96—well MicroElution Plate—Cat #186001830BA Sample: 200 μL of plasma spiked at 10 μM with test compound. Sample was diluted 1:1 with 4% phosphoric acid in water and mixed for 15 minutes 1) Place Oasis plate on vacuum manifold and set vacuum to 5″ Hg; 2) Condition with 200 μL methanol; 3) Equilibrate with 200 μL water; 4) Load dilute plasma sample; 5) Wash with 200 μL 2% formic acid in water; 6) Wash with 400 μL methanol; and 7) Elute with 100 μL 5% NH4OH in methanol.
(§4) Sorbent: Waters Oasis MAX 96-well MicroElution plate—Cat #186001829 Sample: 200 μL of plasma spiked at 10 μM with test compound. Sample was diluted 1:1 with 4% phosphoric acid in water and mixed for 15 minutes 1) Place Oasis plate on vacuum manifold and set vacuum to 5″ Hg; 2) Condition with 200 μL methanol; 3) Equilibrate with 200 μL water; 4) Load dilute plasma sample; 5) Wash with 200 μL 5% NH4OH in water; 6) Wash with 400 μL methanol; and 7) Elute with 100 μL 2% formic acid in methanol.

[8] = as above; format: in vitro ADME, human; details: human, human plasma, 1.0E−05M, SPE sample preparation
Protocol: as §2, §3, §4

[9] = 0.75% CD solution, pH 8.5, 240 mg/ml salt
[10] = NB 144-4 formulation, Storage temp. 2-8° C.
[11] = NB 144-4 formulation, Storage temp. 25° C.
[12] = NB 144-4 formulation, Storage temp. 40° C.
[13] = NB 144-32 (F1), 37% LD-Tyr/0.5% CD
[14] = NB 144-34 (F2), 44% LD-Tyr/0.5% CD
[15] = NB 144-39 (F3), 30% LD-Tyr/0.5% CD

NCCCC[C@H](NC(=O)[C@@H](N)Cc1ccc(O)c(O)c1)C(=O)O [LD-Lys HCl salt] (H-[Dopa]-Lys-OH)
Appearance ([1]; 0.75% CD solution, pH 6.46, 240 mg/ml salt): Clear | Appearance [1, 9]: Clear | solubility thermodynamic ([1]; 25 °C, aqueous buffer, thermodynamic from solid, solvent WFI, pH 6.51, HCl counter-ion, read-out: LD-Lys TFA salt concentration): 350 mg/mL | Appearance ([1]; WFI, pH 6.51, 350 mg/ml salt): Clear | LD-Lys free base Concentration ([1]; solvent 0.75% CD solution, pH 6.46): 200 mg/mL | LD-Lys TFA salt concentration ([1]; solvent 0.75% CD solution, pH 6.46, HCl counter-ion): 240 mg/mL | LD-Lys free base Concentration ([1]; solvent 0.75% CD solution, pH 8.5): 200 mg/mL | LD-Lys TFA salt concentration ([1]; solvent 0.75% CD solution, pH 8.5, HCl counter-ion): 240 mg/mL | LD-Lys free base Concentration ([1]; solvent WFI, pH 6.51): 290 mg/mL | Stability [2, 9]: Precipitated* (precipitated within 12 hours at room temperature) | Stability ([2]; WFI, pH 6.51, 350 mg/ml salt): Stable (physically stable for at least 12 hours)

C[C@@](Cc1ccc(O)c(O)c1)(NN)C(=O)O [CD]
Analytical stability result (HPLC), t = 0 ([3]; NB 144-4 formulation (30% LD-Tyr/0.75% CD), Storage temp. 2-8° C.): 7.37 | % retention, t = 1 week [3, 10]: 99.9% | Analytical stability result (HPLC), t = 1 week [3, 10]: 7.36 | % retention, t = 2 weeks [3, 10]: 99.1% | Analytical stability result (HPLC), t = 2 weeks [3, 10]: 7.30 | % retention, t = 1 week [3, 11]: 99.3% | Analytical stability result (HPLC), t = 1 week [3, 11]: 7.32 | % retention, t = 2 weeks [3, 11]: 100.5% | Analytical stability result (HPLC), t = 2 weeks [3, 11]: 7.41 | Analytical stability result (HPLC), t = 0 [3, 12]: 7.37 | % retention, t = 1 week [3, 12]: 98.5% | Analytical stability result (HPLC), t = 1 week [3, 12]: 7.26 | Concentration (HPLC), t = 0 [3, 13]: 4.78 | Concentration (HPLC), t = 28 h at 32° C. [3, 13]: 4.77 | Concentration (HPLC), t = 0 [3, 14]: 4.84 | Concentration (HPLC), t = 28 h at 32° C. [3, 14]: 4.78 | Concentration (HPLC), t = 0 [3, 15]: 4.86 | Concentration (HPLC), t = 28 h at 32° C. [3, 15]: 4.74 | Analytical stability result (HPLC), t = 0 [4]: 7.37

NC(=O)[C@@H](N)Cc1ccc(O)c(O)c1 [LDA (levodopa amide), levodopa amide, reference compound]
Ke [5]: −0.0008 | Ke [6]: 0.0149

N[C@@H](Cc1ccc(O)c(O)c1)C(=O)N[C@@H](CCC(=O)O)C(=O)O [LD-Glu TFA salt, Levodopa Glutamic Acid TFA Salt] (H-[Dopa]-Glu-OH)
% Protein Bound 1st [7]: 36.6% | % Protein Bound 2nd [7]: 49.4% | % Protein Bound Mean [7]: 43% | recovery at 10 μM ([8]; read-out: % Recovery 1st): 110% | recovery at 10 μM ([8]; read-out: % Recovery 2nd): 115% | recovery at 10 μM ([8]; read-out: % Recovery Mean): 112%
